The results in this text go back to the supplement of paper PMC6045584.

Compound in test [1]: C[C@@H](Oc1cc(-c2cnn(C3CCNCC3)c2)cnc1N)c1c(Cl)ccc(F)c1Cl
The test can be described thus: surviving fraction relative to DMSO-only wells; higher = less growth inhibition. To be noted: exposure time: 5 days. The method, boiled down: (§1)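 Each tumour cell line was screened three times, and only lines with replicate Pearson r >0.7 and median Z' >0.3 were kept. Cells in log phase were seeded at 250–500 per well in 384-well plates, left 24 hours, then exposed continuously for five days to inhibitors at 0.5, 1, 5, 10, 50, 100, 500 and 1000 nM. Viability was read as CellTiter-Glo luminescence, with surviving fraction normalised to the median of DMSO-only wells.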

Compound in another test: O=C(c1cc(Cc2n[nH]c(=O)c3ccccc23)ccc1F)N1CCN(C(=O)C2CC2)CC1 [OLAPARIB]
The test is described as above. As to conditions: exposure time: 5 days. The gist of the method:
as §1

Compound in the next test: Cc1nc(Nc2ncc(C(=O)Nc3c(C)cccc3Cl)s2)cc(N2CCN(CCO)CC2)n1 [DASATINIB]
The test can be described thus: area under dose-response curve of surviving fraction (unscaled, Aref=0) (surviving fraction x log10(nM)); higher = more resistant. As to conditions: exposure time: 5 days; dose range 0.5-1000 nM. The gist of the method:
(§2)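 Tumour cell lines in 384-well plates were exposed for five days to eight inhibitor concentrations from 0.5 to 1000 nM. Viability was read by CellTiter-Glo luminescence, normalised to DMSO-only wells, in three screens per line. Dose-response survival curves were fitted to surviving fractions by 3-parameter logistic regression in the drc R package. Area under the curve is the unscaled activity area (Aref = 0) over log10 dose.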

Compound in the next test: Cn1nnc2c(C(N)=O)ncn2c1=O [TEMOZOLOMIDE]
The description is as above. To be noted: exposure time: 5 days; dose range 0.5-1000 nM. The gist of the method: as §2

Compound in a further test: NS(=O)(=O)OC[C@@H]1C[C@@H](n2ccc3c(N[C@H]4CCc5ccccc54)ncnc32)C[C@@H]1O [MLN-4924]
Described as above. As to conditions: exposure time: 5 days; dose range 0.5-1000 nM. The method, boiled down: as §2

± gives the standard deviation of the averaged measurements.

Turning to HCC38 BREAST, the surviving fraction was 0.862 ± 0.14 in test [1] (0.5 nM); 0.928 ± 0.18 in test [1] (5 nM); 0.928 ± 0.16 in test [1] (10 nM); 1.09 ± 0.22 in test [1] (50 nM); 1.13 ± 0.23 in test [1] (100 nM); 0.66 ± 0.14 in test [1] (1000 nM). Besides, the surviving fraction was 1.13 ± 0.12 with OLAPARIB (0.5 nM); 1.04 ± 0.039 with OLAPARIB (1 nM); 1.05 ± 0.26 in the test with OLAPARIB (5 nM); 1.05 ± 0.22 with OLAPARIB (10 nM); 0.656 ± 0.17 with OLAPARIB (50 nM); 0.6 ± 0.094 with OLAPARIB (100 nM). Also, the surviving fraction is 0.441 ± 0.098 with OLAPARIB (500 nM) and 0.432 ± 0.074 with OLAPARIB (1000 nM). Besides, the “area under dose-response curve” value with DASATINIB worked out at 2.79; with TEMOZOLOMIDE, 4.36; in the test with MLN-4924 it was 2.17.
For HMLE3 BREAST, the surviving fraction in test [1] (0.5 nM) was determined as 0.873 ± 0.031; in test [1] (1 nM), 0.829 ± 0.028; in test [1] (50 nM) it was 0.941 ± 0.063; in test [1] (100 nM) it was 0.843 ± 0.019; in test [1] (500 nM), 0.599 ± 0.051; in test [1] (1000 nM) it was 0.38 ± 0.011. Moreover, the surviving fraction with OLAPARIB (0.5 nM) is 1.01 ± 0.015; in the test with OLAPARIB (1 nM), 0.976 ± 0.039; with OLAPARIB (5 nM), 1.09 ± 0.097; with OLAPARIB (10 nM), 1.06 ± 0.057; in the test with OLAPARIB (50 nM) it was 0.972 ± 0.042; with OLAPARIB (100 nM), 0.962 ± 0.12. Besides, the surviving fraction in the test with OLAPARIB (500 nM) is 0.911 ± 0.07; with OLAPARIB (1000 nM), 0.835 ± 0.072. The “area under dose-response curve” value with DASATINIB is 2.46; with TEMOZOLOMIDE, 3.48; in the test with MLN-4924 it was 2.48.
As for HMT3552 BREAST, the surviving fraction is 1.17 in test [1] (50 nM); 0.393 in test [1] (500 nM); 0.211 in test [1] (1000 nM); 0.96 with OLAPARIB (0.5 nM); 0.909 with OLAPARIB (1 nM); 0.92 with OLAPARIB (5 nM). Also, the surviving fraction in the test with OLAPARIB (10 nM) was found to be 0.865; with OLAPARIB (50 nM) it was 1.07; with OLAPARIB (100 nM), 0.858; with OLAPARIB (500 nM), 0.913; with OLAPARIB (1000 nM), 0.742. The “area under dose-response curve” value worked out at 1.53 with DASATINIB, 3.67 with TEMOZOLOMIDE and 2.14 in the test with MLN-4924.
In the case of HS578T BREAST, the surviving fraction in test [1] (1 nM) was 0.827 ± 0.12; in test [1] (5 nM), 0.845 ± 0.063; in test [1] (10 nM), 0.959 ± 0.16; in test [1] (50 nM), 0.936 ± 0.1; in test [1] (100 nM), 0.85 ± 0.1; in test [1] (500 nM) it was 0.552 ± 0.13. The surviving fraction in test [1] (1000 nM) was 0.563 ± 0.11; in the test with OLAPARIB (0.5 nM) it was 0.886 ± 0.076; in the test with OLAPARIB (1 nM), 0.911 ± 0.043; with OLAPARIB (5 nM) it was 0.937 ± 0.14; in the test with OLAPARIB (10 nM) it was 0.853 ± 0.12; with OLAPARIB (50 nM), 0.837 ± 0.079. The results for the surviving fraction with OLAPARIB (100 nM), in the test with OLAPARIB (500 nM) and in the test with OLAPARIB (1000 nM) were 0.87 ± 0.061, 0.713 ± 0.093 and 0.705 ± 0.066, respectively. In addition, the “area under dose-response curve” value is 1.56 with DASATINIB, 3.09 in the test with TEMOZOLOMIDE and 2.37 in the test with MLN-4924.
With HCC70 BREAST, the surviving fraction was found to be 0.95 ± 0.095 in test [1] (1 nM); 1.14 ± 0.12 in test [1] (100 nM); 0.964 ± 0.04 in test [1] (500 nM); 0.736 ± 0.034 in test [1] (1000 nM); 1.15 ± 0.043 in the test with OLAPARIB (0.5 nM); 1.08 ± 0.038 with OLAPARIB (1 nM). Also, the surviving fraction with OLAPARIB (5 nM) came to 1.13 ± 0.082; with OLAPARIB (10 nM), 1.15 ± 0.049; with OLAPARIB (50 nM) it was 1.1 ± 0.16; in the test with OLAPARIB (100 nM), 1.05 ± 0.064; in the test with OLAPARIB (500 nM), 0.983 ± 0.069; in the test with OLAPARIB (1000 nM), 0.928 ± 0.12. The “area under dose-response curve” value was 2.81 with DASATINIB, 3.54 with TEMOZOLOMIDE and 2.21 with MLN-4924.
Consider G292 BONE, for which the surviving fraction in test [1] (0.5 nM) worked out at 0.961 ± 0.025; in test [1] (1 nM), 0.971 ± 0.032; in test [1] (5 nM), 0.931 ± 0.088; in test [1] (50 nM), 0.948 ± 0.038; in test [1] (100 nM) it was 0.871 ± 0.011; in test [1] (500 nM), 0.564 ± 0.031. Moreover, the surviving fraction in test [1] (1000 nM) amounted to 0.38 ± 0.01; with OLAPARIB (0.5 nM) it was 1.01 ± 0.014; with OLAPARIB (1 nM) it was 1.01 ± 0.037; with OLAPARIB (5 nM), 1.01 ± 0.016; with OLAPARIB (10 nM), 1.02 ± 0.017; with OLAPARIB (50 nM) it was 0.977 ± 0.022. In addition, the surviving fraction with OLAPARIB (100 nM) is 0.971 ± 0.046; with OLAPARIB (500 nM), 0.872 ± 0.037; in the test with OLAPARIB (1000 nM), 0.831 ± 0.02. The “area under dose-response curve” value with DASATINIB amounted to 1.79; with TEMOZOLOMIDE it was 3.33; with MLN-4924, 2.51.
